# Key:
# Mouse 11β-HSD1 = Mouse 11β-HSD1 (Mus musculus, UniProt P50172); assay: Evaluation of compound against mouse 11β-HSD1 (HTRF assay, 11-dehydrocorticosterone substrate); format: biochemical; conditions: 11-dehydrocorticosterone 2 μM, 37° C. 2 hours
# Procedure: Evaluation Method of 11β-HSD1 Inhibitor (Evaluation of Compound Against Mouse 11β-HSD1)
# (§1) After preincubating an inhibitor in a reaction solution consisting of 50 mM sodium phosphate buffer (pH 7.5), bovine serum albumin (1 mg/mL), NADPH (0.42 mg/mL), glucose-6-phosphate (1.26 mg/mL), glucose-6-phosphate dehydrogenase, and an enzyme at room temperature for 30 minutes, 11-dehydrocorticosterone (2 μM) was added as a substrate (total amount 10 μL). After reacting at 37° C. for 2 hours, an XL-665-labeled cortisol solution (5 μL), and a Cryptate-labeled anti-cortisol antibody solution (5 μL) were added. The reaction was performed at room temperature for 2 hours, and fluorescence intensity (HTRF method) was measured.
# A corticosterone concentration was calculated from a standard curve prepared using a known concentration of corticosterone for each assay.
# Taking a concentration of corticosterone generated in the absence of the inhibitor as a control value, 50% inhibitory concentration (IC50 value) of the inhibitor against 11β-HSD1 was calculated from an inhibition curve plotting inhibition rate against the control value at each concentration of the inhibitor.
# Human 11β-HSD1 = Human 11β-HSD1 (Homo sapiens, UniProt P28845); assay: Evaluation of compound against human 11β-HSD1 (HTRF cortisol assay, cortisone substrate); format: biochemical; conditions: cortisone 5 μM, 37° C. 2 hours
# Chain of Human 11β-HSD1 (P28845 whole entry): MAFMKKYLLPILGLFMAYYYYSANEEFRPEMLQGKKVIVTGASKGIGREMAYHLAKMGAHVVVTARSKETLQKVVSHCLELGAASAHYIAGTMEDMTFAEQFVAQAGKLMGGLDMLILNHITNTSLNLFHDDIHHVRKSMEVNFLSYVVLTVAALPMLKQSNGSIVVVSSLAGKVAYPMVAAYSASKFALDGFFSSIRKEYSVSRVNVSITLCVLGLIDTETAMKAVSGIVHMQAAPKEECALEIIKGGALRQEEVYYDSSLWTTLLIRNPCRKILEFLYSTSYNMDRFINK
# Procedure: Evaluation Method of […] Inhibitor (Evaluation of Compound Against Human 11β-HSD1)
# as §1, with “dehydrogenase” for “dehydrogenase,”, “30), (Inutes, cortisone (5” for “30 minutes, 11-dehydrocorticosterone (2”, “measured. A cortisol concentration was calculated from a standard curve prepared using a known concentration of cortisol for each assay.” for “measured.”
# Taking a concentration of cortisol generated in the absence of the inhibitor as a control value, 50% inhibitory concentration (IC50 value) of the inhibitor against 11β-HSD1 was calculated from an inhibition curve plotting inhibition rate against the control value at each concentration of an inhibitor.
# Chain of Mouse 11β-HSD1 (P50172 whole entry): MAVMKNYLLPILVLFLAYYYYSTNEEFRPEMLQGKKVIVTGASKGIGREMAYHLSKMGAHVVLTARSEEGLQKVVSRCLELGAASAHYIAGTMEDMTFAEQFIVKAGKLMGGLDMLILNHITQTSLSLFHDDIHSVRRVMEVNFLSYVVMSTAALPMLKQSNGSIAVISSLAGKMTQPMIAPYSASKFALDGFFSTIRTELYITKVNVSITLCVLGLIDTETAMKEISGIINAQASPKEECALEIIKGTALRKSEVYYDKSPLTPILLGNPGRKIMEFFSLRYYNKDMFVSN
SMILES,IC50 (Mouse 11β-HSD1) [nM],IC50 (Human 11β-HSD1) [nM]
COC(=O)NC(C)(C)/C=C/n1ncc(C(=O)N[C@H]2C3CC4CC2C[C@](F)(C4)C3)c1-c1ccccc1 [Compound I-128],5.5,62.4
CC(C)COc1c(C(=O)N[C@H]2C3CC4CC2C[C@](O)(C4)C3)cnn1/C=C/C(C)(C)NC(=O)CCC1CCCC1 [Compound I-36],1,1.2
CC(C)COc1c(C(=O)N[C@H]2C3CC4CC2C[C@](OC(N)=O)(C4)C3)cnn1/C=C/C(C)(C)NS(C)(=O)=O [Compound I-9],1.7,11
CC(=O)NC(C)(C)/C=C/n1ncc(C(=O)N[C@H]2C3CC4CC2C[C@](CO)(C4)C3)c1CC(C)C [Compound I-121],4.9,154
CC(=O)NC(C)(C)/C=C/n1ncc(C(=O)N[C@H]2C3CC4CC2C[C@](CO)(C4)C3)c1-c1ccccc1 [Compound I-131],1.4,20.8
COC(=O)NC(C)(C)/C=C/n1ncc(C(=O)N[C@H]2C3CC4CC2C[C@](OC(N)=O)(C4)C3)c1-c1ccccc1 [Compound I-127],3,88.1
COC(=O)NC(C)(C)/C=C/n1ncc(C(=O)N[C@H]2C3CC4CC2C[C@](O)(C4)C3)c1-n1cccn1 [Compound I-133],0.52,75.6

# Molecules with a lower IC50 (Mouse 11β-HSD1), results first:
IC50 (Mouse 11β-HSD1) [nM],IC50 (Human 11β-HSD1) [nM],SMILES
0.41,3.4,CC(C)COc1c(C(=O)N[C@H]2C3CC4CC2C[C@](OC(N)=O)(C4)C3)cnn1/C=C/C(C)(C)C#N [Compound I-7]
0.37,64.4,COC(=O)NC(C)(C)/C=C/n1ncc(C(=O)NC2C3CC4CC2CC(COC(N)=O)(C4)C3)c1-n1cccn1 (stereo not shown) [Compound I-139]
0.23,0.62,CC(C)COc1c(C(=O)NC2C3CC4CC2CC(O)(C4)C3)cnn1C=CC(C)(C)NC(=O)COCc1ccccc1 (stereo not shown) [Compound I-77]
0.21,1.4,CC(C)COc1c(C(=O)N[C@H]2C3CC4CC2C[C@](CO)(C4)C3)cnn1/C=C/C(C)(C)C(N)=O [Compound I-63]

# Reference: patent US8383622B2 (priority 2007, dated 2013)
